Measured values: patent US8686044B2, “Amide derivative, pest control agent containing the amide derivative, and use of the amide derivative” (Mitsui Chemicals Agro, Inc., priority 2008, dated 2014)

How the values were obtained:
Type in all cases: in vivo
Plutella xylostella = assay: Pesticidal test against Plutella xylostella (cabbage leaf dip); details: foliar, 144 h, concentration 1 ppm, 2-stage larvae, examined after 6 days, 25° C., read-out: pesticidal rate
In short: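 Cabbage leaf pieces dipped 30 s in test solution at a predetermined concentration, air-dried, then offered to 2nd-instar larvae, five per group in duplicate. Held at 25° C; living and dead larvae counted after 6 days.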

Musca domestica = assay: Pesticidal test against Musca domestica (petri dish dry film); details: 24 h, concentration 100 ppm, female adults, examined after 1 day, 25° C., read-out: pesticidal rate
In short: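 Dry film from 1 ml acetone solution of compound at a predetermined concentration, air-dried in a 9 cm petri dish; female adult flies released and dish capped. Held at 25° C; living and dead counted after 1 day. Five insects per group, two replicates.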

Blattella germanica = assay: Pesticidal test against Blattella germanica (petri dish dry film); details: 24 h, concentration 100 ppm, female adults, examined after 1 day, 25° C., read-out: pesticidal rate
Description: Pesticidal Test against Blattella germanica
1 ml of an acetone solution in which a test compound had been prepared at a predetermined concentration was added dropwise to a petri dish having a diameter of 9 cm, and air-dried, and then the female adults of Blattella germanica were released and the petri dish was capped. They were left to stand in a thermostatic chamber at 25° C., and the numbers of the living pests and the dead pests were examined after 1 day. The test was carried out with five larvae per group in two replicates.

Laodelphax striatellus = assay: Pesticidal test against Laodelphax striatellus (rice seedling spray); details: 144 h, concentration 100 ppm, 3-stage larvae, examined after 6 days, 25° C., read-out: pesticidal rate
In short: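 Rice seedlings sprayed with 2.5 ml acetone solution of compound at a predetermined concentration, air-dried, then infested with third-stage Laodelphax striatellus larvae in capped water-containing tubes at 25 °C. Living and dead insects counted after 6 days; ten larvae per group, two replicates.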

Spodoptera litura = assay: Pesticidal test against Spodoptera litura (cabbage leaf dip); details: foliar, 144 h, concentration 1 ppm, 2-stage larvae, examined after 6 days, 25° C., read-out: pesticidal rate
In short: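 Cabbage leaf pieces dipped 30 seconds in compound solution at a predetermined concentration and air-dried, then offered to second-stage larvae, five per group in two replicates. Held at 25° C. Living and dead larvae counted after 6 days.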

CN(C(=O)c1ccccc1F)c1cccc(C(=O)Nc2c(Br)cc(C(F)(C(F)(F)F)C(F)(F)F)cc2C(F)(F)F)c1F [7-1575]
≥ 70%: pest or weed control at 1 ppm (Plutella xylostella) | pest or weed control at 100 ppm (Musca domestica) | pest or weed control at 100 ppm (Blattella germanica) | pest or weed control at 100 ppm (Laodelphax striatellus) | pest or weed control at 1 ppm (Spodoptera litura)

N#Cc1cccc(C(=O)Nc2cccc(C(=O)Nc3c(Br)cc(C(F)(C(F)(F)F)C(F)(F)F)cc3Br)c2F)c1 [6-1124]
≥ 70%: pest or weed control at 1 ppm (Plutella xylostella) | pest or weed control at 100 ppm (Musca domestica) | pest or weed control at 100 ppm (Blattella germanica) | pest or weed control at 100 ppm (Laodelphax striatellus) | pest or weed control at 1 ppm (Spodoptera litura)

O=C(Nc1cccc(C(=O)Nc2c(I)cc(C(F)(C(F)(F)F)C(F)(F)F)cc2C(F)(F)F)c1F)c1ccc(Cl)nc1 [6-1773]
≥ 70%: pest or weed control at 1 ppm (Plutella xylostella) | pest or weed control at 100 ppm (Musca domestica) | pest or weed control at 100 ppm (Blattella germanica) | pest or weed control at 100 ppm (Laodelphax striatellus) | pest or weed control at 1 ppm (Spodoptera litura)

O=C(Nc1c(I)cc(C(F)(C(F)(F)F)C(F)(F)F)cc1C(F)(F)F)c1cccc(NC(=O)c2c(F)cccc2F)c1F [6-1752]
≥ 70%: pest or weed control at 1 ppm (Plutella xylostella) | pest or weed control at 100 ppm (Musca domestica) | pest or weed control at 100 ppm (Blattella germanica) | pest or weed control at 100 ppm (Laodelphax striatellus) | pest or weed control at 1 ppm (Spodoptera litura)

CN(C(=O)c1cccnc1Cl)c1cccc(C(=O)Nc2c(I)cc(C(F)(C(F)(F)F)C(F)(F)F)cc2C(F)(F)F)c1F [7-1766]
≥ 70%: pest or weed control at 1 ppm (Plutella xylostella) | pest or weed control at 100 ppm (Musca domestica) | pest or weed control at 100 ppm (Blattella germanica) | pest or weed control at 100 ppm (Laodelphax striatellus) | pest or weed control at 1 ppm (Spodoptera litura)

CN(C(=O)c1c(F)cccc1F)c1cccc(C(=O)Nc2c(I)cc(C(F)(C(F)(F)F)C(F)(F)F)cc2I)c1F [7-1282]
≥ 70%: pest or weed control at 1 ppm (Plutella xylostella) | pest or weed control at 100 ppm (Musca domestica) | pest or weed control at 100 ppm (Blattella germanica) | pest or weed control at 100 ppm (Laodelphax striatellus) | pest or weed control at 1 ppm (Spodoptera litura)

O=C(Nc1cccc(C(=O)Nc2c(Br)cc(C(F)(C(F)(F)F)C(F)(F)C(F)(F)F)cc2Br)c1)c1cccc(F)c1 (centres unmarked) [6-5905]
≥ 70%: pest or weed control at 1 ppm (Plutella xylostella) | pest or weed control at 100 ppm (Musca domestica) | pest or weed control at 100 ppm (Blattella germanica) | pest or weed control at 100 ppm (Laodelphax striatellus) | pest or weed control at 1 ppm (Spodoptera litura)

O=C(Nc1c(Br)cc(C(F)(C(F)(F)F)C(F)(F)C(F)(F)F)cc1C(F)(F)F)c1cccc(NC(=O)c2c(F)cccc2F)c1 (centres unmarked) [6-368]
≥ 70%: pest or weed control at 1 ppm (Plutella xylostella) | pest or weed control at 100 ppm (Musca domestica) | pest or weed control at 100 ppm (Blattella germanica) | pest or weed control at 100 ppm (Laodelphax striatellus) | pest or weed control at 1 ppm (Spodoptera litura)

CN(C(=O)c1ccc(Cl)nc1)c1cccc(C(=O)Nc2c(I)cc(C(F)(C(F)(F)F)C(F)(F)C(F)(F)F)cc2I)c1F (centres unmarked) [7-1381]
≥ 70%: pest or weed control at 1 ppm (Plutella xylostella) | pest or weed control at 100 ppm (Musca domestica) | pest or weed control at 100 ppm (Blattella germanica) | pest or weed control at 100 ppm (Laodelphax striatellus) | pest or weed control at 1 ppm (Spodoptera litura)

O=C(Nc1c(Br)cc(C(F)(C(F)(F)F)C(F)(F)C(F)(F)F)cc1Br)c1cccc(NC(=O)c2ccccc2F)c1 (centres unmarked) [6-39]
≥ 70%: pest or weed control at 1 ppm (Plutella xylostella) | pest or weed control at 100 ppm (Musca domestica) | pest or weed control at 100 ppm (Blattella germanica) | pest or weed control at 100 ppm (Laodelphax striatellus) | pest or weed control at 1 ppm (Spodoptera litura)

CN(C(=O)c1c(F)cccc1F)c1cccc(C(=O)Nc2c(Br)cc(C(F)(C(F)(F)F)C(F)(F)F)cc2C(F)(F)F)c1F [7-1596]
≥ 70%: pest or weed control at 1 ppm (Plutella xylostella) | pest or weed control at 100 ppm (Musca domestica) | pest or weed control at 100 ppm (Blattella germanica) | pest or weed control at 100 ppm (Laodelphax striatellus) | pest or weed control at 1 ppm (Spodoptera litura)

O=C(Nc1cccc(C(=O)Nc2c(Br)cc(C(F)(C(F)(F)F)C(F)(F)F)cc2Br)c1F)c1ccc(Cl)nc1 [6-1147]
≥ 70%: pest or weed control at 1 ppm (Plutella xylostella) | pest or weed control at 100 ppm (Musca domestica) | pest or weed control at 100 ppm (Blattella germanica) | pest or weed control at 100 ppm (Laodelphax striatellus) | pest or weed control at 1 ppm (Spodoptera litura)

O=C(Nc1cccc(C(=O)Nc2c(Br)cc(C(F)(C(F)(F)F)C(F)(F)F)cc2C(F)(F)F)c1F)c1ccc(Cl)nc1 [6-1617]
≥ 70%: pest or weed control at 1 ppm (Plutella xylostella) | pest or weed control at 100 ppm (Musca domestica) | pest or weed control at 100 ppm (Blattella germanica) | pest or weed control at 100 ppm (Laodelphax striatellus) | pest or weed control at 1 ppm (Spodoptera litura)

O=C(Nc1c(Br)cc(C(F)(C(F)(F)F)C(F)(F)C(F)(F)F)cc1Br)c1cccc(NC(=O)c2c(F)cccc2F)c1 (centres unmarked) [6-47]
≥ 70%: pest or weed control at 1 ppm (Plutella xylostella) | pest or weed control at 100 ppm (Musca domestica) | pest or weed control at 100 ppm (Blattella germanica) | pest or weed control at 100 ppm (Laodelphax striatellus) | pest or weed control at 1 ppm (Spodoptera litura)

CN(C(=O)c1c(F)cccc1F)c1cccc(C(=O)Nc2c(Br)cc(C(F)(C(F)(F)F)C(F)(F)F)cc2Br)c1F [7-1126]
≥ 70%: pest or weed control at 1 ppm (Plutella xylostella) | pest or weed control at 100 ppm (Musca domestica) | pest or weed control at 100 ppm (Blattella germanica) | pest or weed control at 100 ppm (Laodelphax striatellus) | pest or weed control at 1 ppm (Spodoptera litura)

O=C(Nc1c(Br)cc(C(F)(C(F)(F)F)C(F)(F)C(F)(F)F)cc1Br)c1cccc(NC(=O)c2c(F)cccc2F)c1F (centres unmarked) [6-1204]
≥ 70%: pest or weed control at 1 ppm (Plutella xylostella) | pest or weed control at 100 ppm (Musca domestica) | pest or weed control at 100 ppm (Blattella germanica) | pest or weed control at 100 ppm (Laodelphax striatellus) | pest or weed control at 1 ppm (Spodoptera litura)

O=C(Nc1cccc(C(=O)Nc2c(Br)cc(C(F)(C(F)(F)F)C(F)(F)C(F)(F)F)cc2Br)c1F)c1cccc(F)c1 (centres unmarked) [6-1184]
≥ 70%: pest or weed control at 1 ppm (Plutella xylostella) | pest or weed control at 100 ppm (Musca domestica) | pest or weed control at 100 ppm (Blattella germanica) | pest or weed control at 100 ppm (Laodelphax striatellus) | pest or weed control at 1 ppm (Spodoptera litura)

CN(C(=O)c1c(F)cccc1F)c1cccc(C(=O)Nc2c(I)cc(C(F)(C(F)(F)F)C(F)(F)F)cc2C(F)(F)F)c1F [7-1752]
≥ 70%: pest or weed control at 1 ppm (Plutella xylostella) | pest or weed control at 100 ppm (Musca domestica) | pest or weed control at 100 ppm (Blattella germanica) | pest or weed control at 100 ppm (Laodelphax striatellus) | pest or weed control at 1 ppm (Spodoptera litura)

O=C(Nc1cccc(C(=O)Nc2c(I)cc(C(F)(C(F)(F)F)C(F)(F)C(F)(F)F)cc2I)c1F)c1ccccc1 (centres unmarked) [6-1338]
≥ 70%: pest or weed control at 1 ppm (Plutella xylostella) | pest or weed control at 100 ppm (Musca domestica) | pest or weed control at 100 ppm (Blattella germanica) | pest or weed control at 100 ppm (Laodelphax striatellus) | pest or weed control at 1 ppm (Spodoptera litura)

O=C(Nc1cccc(C(=O)Nc2c(Br)cc(C(F)(C(F)(F)F)C(F)(F)F)cc2Br)c1F)c1ccc(F)cc1 [6-1107]
≥ 70%: pest or weed control at 1 ppm (Plutella xylostella) | pest or weed control at 100 ppm (Musca domestica) | pest or weed control at 100 ppm (Blattella germanica) | pest or weed control at 100 ppm (Laodelphax striatellus) | pest or weed control at 1 ppm (Spodoptera litura)

CN(C(=O)c1c(F)cccc1F)c1cccc(C(=O)Nc2c(I)cc(C(F)(C(F)(F)F)C(F)(F)F)cc2C(F)(F)F)c1 [7-446]
≥ 70%: pest or weed control at 1 ppm (Plutella xylostella) | pest or weed control at 100 ppm (Musca domestica) | pest or weed control at 100 ppm (Blattella germanica) | pest or weed control at 100 ppm (Laodelphax striatellus) | pest or weed control at 1 ppm (Spodoptera litura)

O=C(Nc1c(Br)cc(C(F)(C(F)(F)F)C(F)(F)F)cc1Br)c1cccc(NC(=O)c2c(F)cccc2F)c1F [6-1126]
≥ 70%: pest or weed control at 1 ppm (Plutella xylostella) | pest or weed control at 100 ppm (Musca domestica) | pest or weed control at 100 ppm (Blattella germanica) | pest or weed control at 100 ppm (Laodelphax striatellus) | pest or weed control at 1 ppm (Spodoptera litura)

CN(C(=O)c1ccccc1F)c1cccc(C(=O)Nc2c(Br)cc(C(F)(C(F)(F)F)C(F)(F)F)cc2Br)c1F [7-1105]
≥ 70%: pest or weed control at 1 ppm (Plutella xylostella) | pest or weed control at 100 ppm (Musca domestica) | pest or weed control at 100 ppm (Blattella germanica) | pest or weed control at 100 ppm (Laodelphax striatellus) | pest or weed control at 1 ppm (Spodoptera litura)

O=C(Nc1cccc(C(=O)Nc2c(Br)cc(C(F)(C(F)(F)F)C(F)(F)C(F)(F)F)cc2Br)c1F)c1cccnc1Cl (centres unmarked) [6-1218]
≥ 70%: pest or weed control at 1 ppm (Plutella xylostella) | pest or weed control at 100 ppm (Musca domestica) | pest or weed control at 100 ppm (Blattella germanica) | pest or weed control at 100 ppm (Laodelphax striatellus) | pest or weed control at 1 ppm (Spodoptera litura)

O=C(Nc1cccc(C(=O)Nc2c(I)cc(C(F)(C(F)(F)F)C(F)(F)F)cc2C(F)(F)F)c1F)c1ccccc1F [6-1731]
≥ 70%: pest or weed control at 1 ppm (Plutella xylostella) | pest or weed control at 100 ppm (Musca domestica) | pest or weed control at 100 ppm (Blattella germanica) | pest or weed control at 100 ppm (Laodelphax striatellus) | pest or weed control at 1 ppm (Spodoptera litura)

CN(C(=O)c1cccnc1Cl)c1cccc(C(=O)Nc2c(I)cc(C(F)(C(F)(F)F)C(F)(F)F)cc2I)c1F [7-1296]
≥ 70%: pest or weed control at 1 ppm (Plutella xylostella) | pest or weed control at 100 ppm (Musca domestica) | pest or weed control at 100 ppm (Blattella germanica) | pest or weed control at 100 ppm (Laodelphax striatellus) | pest or weed control at 1 ppm (Spodoptera litura)

O=C(Nc1cccc(C(=O)Nc2c(Br)cc(C(F)(C(F)(F)F)C(F)(F)F)cc2C(F)(F)F)c1F)c1ccccc1F [6-1575]
≥ 70%: pest or weed control at 1 ppm (Plutella xylostella) | pest or weed control at 100 ppm (Musca domestica) | pest or weed control at 100 ppm (Blattella germanica) | pest or weed control at 100 ppm (Laodelphax striatellus) | pest or weed control at 1 ppm (Spodoptera litura)

CN(C(=O)c1cccnc1Cl)c1cccc(C(=O)Nc2c(Br)cc(C(F)(C(F)(F)F)C(F)(F)C(F)(F)F)cc2Br)c1 (centres unmarked) [7-57]
≥ 70%: pest or weed control at 1 ppm (Plutella xylostella) | pest or weed control at 100 ppm (Musca domestica) | pest or weed control at 100 ppm (Blattella germanica) | pest or weed control at 100 ppm (Laodelphax striatellus) | pest or weed control at 1 ppm (Spodoptera litura)
